The values below come from PubChem BioAssay (NCI).

Holding throughout (assay): inhibition of tumour cell growth, NCI panel, 48 h
Assay [1] deals with HCC-2998 colon.
In assay [2] the test system is HCT-15 colon.
For assay [3], the system named is HT29 colon.
Assay [4] has as its system MOLT-4 leukemia.
Assay [5] relates to OVCAR-4 ovarian.
Assay [6] has as its system SK-MEL-2 melanoma.
The test system of assay [7] is SK-MEL-28 melanoma.
Assay [8] has as its system TK-10 renal.
Assay [9] has as its system HS 578T breast.
For assay [10], the system named is MDA-MB-231 breast.

Structures are written as SMILES. “And” between values parts separate entries of the source, which are not always exact repeats. Identical values can stand only once.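 Exposure lasted 48 hours, with cells grown in 96-well plates and compounds tested at five concentrations. At the GI50, growth is halved. TGI denotes the concentration required for complete inhibition of growth.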 Where only a bound is given, the exact number is not on record here.

As to `C=CC1=C(C)C(/C=c2\[nH]/c(=C/c3[nH]c(CC4NC(=O)C(C)/C4=C\C)c(C)c3CCC(=O)O)c(CC(=O)O)c2C)=NC1=O` (stereo unspecified), the TGI in [1], in assay [2], in assay [3], in [4], in assay [5] and in assay [6] was over 100 µM each time. Besides, the TGI in assay [7] and in [8] was over 100 µM each time.

Turning to `CCC(O)CCCCCCCCCCCCCCC(=O)O` (stereo unspecified), the TGI in [3], in [4], in [5], in [6], in assay [7] and in [8] was over 100 µM each time.

As for `COc1cc(C2c3cc4c(cc3[C@@H](NC3CCN(Cc5ccccc5)CC3)C3COC(=O)[C@H]23)OCO4)cc(OC)c1O` (stereo partly specified), the TGI in assay [1] is 1.13 µM and 0.427 µM; in [2] it was 0.536 µM and 0.432 µM; in assay [3] it was 1.93 µM and 0.41 µM; in [4], 0.0129 µM and 0.0258 µM; in assay [6], 2.77 µM and 0.496 µM; in [7] it was 2.84 µM and 1.57 µM. The TGI in assay [8] was 2.56 µM and 0.608 µM. In addition, the GI50 in [4] is under 0.01 µM; in [5] it was 0.209 µM and 1.12 µM; in assay [6], 1.05 µM and 0.239 µM; in assay [8], 0.679 µM and 0.197 µM.

As to `Cc1cc(OCc2ccc(C(F)(F)F)cc2)c2c(c1)C(=O)C=C(NCCN1CCCC1)C2=O`, the GI50 is 1.87 µM in assay [1]; 1.95 µM in assay [2]; 2.02 µM in [9]; 1.94 µM in assay [3]; 3.03 µM in assay [4]; 4.01 µM in assay [5]. Besides, the GI50 in assay [6] was 1.99 µM; in assay [7], 1.69 µM; in assay [8], 6.85 µM. Also, the TGI in assay [1] came to 3.46 µM; in [2] it was 4.82 µM; in assay [9] it was 5.23 µM; in assay [3] it was 5.01 µM; in assay [4], 10.1 µM; in assay [5] it was 15.5 µM. Moreover, the TGI in assay [6] was 4.08 µM; in assay [7], 3.36 µM; in [8], 22.2 µM.

As for `COC(=O)C1=C(C)NC(=S)NC1c1ccc(N(CCCl)CCCl)cc1Cl` (stereo unspecified), the TGI in assay [2] was over 66.5 µM; in assay [9], over 100 µM; in [3], over 82.8 µM; in [10] it was over 100 µM; in assay [4], 40 µM; in assay [5], over 84.1 µM. The TGI in [6] was over 85.9 µM; in assay [7], over 100 µM; in assay [8], 98.6 µM.

In the case of `CC1=C(CCC(C)CO)O[C@H]2C[C@H]3[C@@H]4CC[C@H]5C[C@@H](O)CC[C@]5(C)[C@H]4CC(=O)[C@]3(C)[C@@H]12` (stereo partly specified), the TGI in assay [2] was 57.6 µM; in [9], 52.5 µM; in assay [3], 71.8 µM; in [10], 47.3 µM; in assay [4], 19.2 µM; in [5] it was over 82.2 µM. Further, the values for the TGI in assay [6], in assay [7] and in assay [8] were 30.6 µM, over 78.5 µM and 46.7 µM, respectively.

With `NC1CC(=O)c2c(-c3cccs3)sc(-c3cccs3)c21` (stereo unspecified), the GI50 in assay [2] is 3.04 µM; in assay [9], 36.7 µM; in assay [3], 19.5 µM; in assay [10], 27.9 µM; in [4] it was 18.5 µM; in assay [5], 43 µM. Moreover, the GI50 was 19.2 µM in assay [7] and 16.3 µM in assay [8]. In addition, the TGI was 22.4 µM in assay [2]; over 100 µM in [9]; 50.1 µM in assay [3]; over 100 µM in assay [10]; over 100 µM in [4]; over 100 µM in [5]. Besides, the TGI in assay [7] was found to be 39.7 µM; in assay [8], 40.3 µM.

For `Cc1cc(-c2ccccc2)nc(Nc2cc3ccccc3[nH]2)n1`, the TGI in assay [1], in [2], in [3], in assay [4], in [5] and in [6] was over 100 µM throughout. For the same compound, the TGI in assay [7] and in assay [8] was over 100 µM each time.

Take `Cc1ccc(NC(=O)COc2ccc(Cl)cc2)cc1Cl`: the TGI is over 100 µM in [2]; over 100 µM in [9]; over 100 µM in assay [3]; 59.7 µM in assay [10]; over 100 µM in assay [4]; over 100 µM in assay [5]. Further, the TGI in [6], in [7] and in assay [8] was over 100 µM each time.

`CN1C(=O)N(C)C2C1NC(=S)N2/N=C/C=C/c1ccccc1[N+](=O)[O-]` (stereo unspecified): the GI50 in assay [1] is 2.56 µM; in [2], 0.889 µM; in assay [9], 0.646 µM; in assay [10], 5.02 µM; in assay [4], 0.992 µM; in assay [5] it was over 100 µM. For the same compound, the values for the GI50 in assay [6] and in assay [7] were 0.587 µM and 3.7 µM, respectively. Moreover, the TGI in assay [1], in assay [2], in assay [9], in assay [10], in assay [4] and in assay [5] was over 100 µM throughout. The TGI in [6] and in assay [7] was over 100 µM each time.

With `CCCCCCCCCC1CC(=O)OC2=C1C(=O)CCC2` (stereo unspecified), the TGI in assay [1], in assay [3], in assay [4], in assay [5], in assay [6] and in assay [7] was over 100 µM each time. This compound also returned a TGI in assay [8] of over 100 µM.

In the case of `CCCCCCC(=O)NC1=C(N2CC2)C(=O)C(NC(=O)CCCCCC)=C(N2CC2)C1=O`, the GI50 in assay [9] is 3.11 µM; in assay [3], 2.94 µM; in assay [10], 3.89 µM; in assay [5], 3.11 µM; in assay [6], 2.52 µM; in [7] it was over 100 µM. Besides, in [8], the GI50 was 20.2 µM. Also, the TGI is over 100 µM in assay [9]; over 100 µM in assay [3]; over 100 µM in assay [10]; over 100 µM in [5]; 6.14 µM in assay [6]; over 100 µM in [7]. Further, in [8], the TGI came out at 72.9 µM.
